From US20260007599A1, “TICAGRELOR IV FORMULATIONS FOR USE IN THE TREATMENT OF GRAM-POSITIVE BACTEREMIA” (Hyloris Developments SA, priority 2023, published 2026)

Assay: Impact of packaging material on stability, 40° C./75% RH
Type: physicochemical
Set-up: Assay: unit not given here
Settings: for Acetal impurity / Amine impurity / Assay / Description / Regiomer / Sum impurities >0.05 / Total (impurity) / Triol impurity / pH: HPβCD 32.5% w/w, 5 mM pH 7.5 phosphate buffer, 40° C./75% RH
Method: To study the potential impact of the packaging material on the stability of the ticagrelor-cyclodextrin inclusion complex, a composition with 32.5% w/w HPβCD was prepared with procedures and precaution's similar to previous trials; samples were stored in transparent clear glass vials and amber colored glass vials at a temperature of 40° C./75% RH.

Q: With CCCSc1nc(N[C@@H]2C[C@H]2c2ccc(F)c(F)c2)c2nnn([C@@H]3C[C@H](OCCO)[C@@H](O)[C@H]3O)c2n1 [ticagrelor, (1S,2S,3R,5S)-3-{7-[(1R,2S)-2-(3,4-difluorophenyl)cyclopropylamino]5-(propylthio)-3H-(1,2,3)triazolo (4,5-D)pyrimidin-3-yl}-5-(2 hydroxyethoxy) cyclopentane-1,2-diol] as the molecule, how does the “difference between clear and amber glass vials” value (accelerated storage stability test, after 3 months) read?
A: no significant difference

Q: And the “number of different impurities developed on storage” value (accelerated storage stability test, without the cyclodextrin)?
A: 6 to 8

Q: What about the Acetal impurity (amber glass vials, 1 M) of the same molecule?
A: 0.05%

Q: What about the Amine impurity (amber glass vials, 1 M) of the same molecule?
A: 0.04%

Q: And the Assay (amber glass vials, 1 M)?
A: 100.24

Q: And the Description (amber glass vials, 1 M)?
A: clear

Q: What about the Regiomer (amber glass vials, 1 M) of the same molecule?
A: 0.01%

Q: What about the “Sum impurities >0.05” value (amber glass vials, 1 M) of the same molecule?
A: 0.05%

Q: What about the “Total (impurity)” value (amber glass vials, 1 M) of the same molecule?
A: 0.22%

Q: What about the Triol impurity (amber glass vials, 1 M) of the same molecule?
A: 0.02%

Q: What about the pH (amber glass vials, 1 M) of the same molecule?
A: 7.70

Q: What about the Acetal impurity (amber glass vials, 2 M) of the same molecule?
A: 0.04%

Q: And the Amine impurity (amber glass vials, 2 M)?
A: 0.04%

Q: What about the Assay (amber glass vials, 2 M) of the same molecule?
A: 99.89

Q: What about the Description (amber glass vials, 2 M) of the same molecule?
A: clear

Q: What about the Regiomer (amber glass vials, 2 M) of the same molecule?
A: 0.02%

Q: And the “Sum impurities >0.05” value (amber glass vials, 2 M)?
A: 0.00%

Q: And the “Total (impurity)” value (amber glass vials, 2 M)?
A: 0.28%

Q: What about the Triol impurity (amber glass vials, 2 M) of the same molecule?
A: 0.04%

Q: What about the pH (amber glass vials, 2 M) of the same molecule?
A: 7.69

Q: What about the Acetal impurity (amber glass vials, 3 M) of the same molecule?
A: 0.05%

Q: What about the Amine impurity (amber glass vials, 3 M) of the same molecule?
A: 0.06%

Q: And the Assay (amber glass vials, 3 M)?
A: 98.93

Q: What about the Description (amber glass vials, 3 M) of the same molecule?
A: clear

Q: What about the Regiomer (amber glass vials, 3 M) of the same molecule?
A: 0.04%

Q: What about the “Sum impurities >0.05” value (amber glass vials, 3 M) of the same molecule?
A: 0.16%

Q: What about the “Total (impurity)” value (amber glass vials, 3 M) of the same molecule?
A: 0.33%

Q: And the Triol impurity (amber glass vials, 3 M)?
A: 0.05%

Q: And the pH (amber glass vials, 3 M)?
A: 7.66

Q: What about the Acetal impurity (amber glass vials, T0) of the same molecule?
A: 0.05%

Q: And the Amine impurity (amber glass vials, T0)?
A: 0.04%

Q: What about the Assay (amber glass vials, T0) of the same molecule?
A: 98.34

Q: What about the Description (amber glass vials, T0) of the same molecule?
A: clear

Q: And the Regiomer (amber glass vials, T0)?
A: 0.00%

Q: What about the “Sum impurities >0.05” value (amber glass vials, T0) of the same molecule?
A: 0.18%

Q: What about the “Total (impurity)” value (amber glass vials, T0) of the same molecule?
A: 0.40%

Q: And the Triol impurity (amber glass vials, T0)?
A: 0.04%

Q: And the pH (amber glass vials, T0)?
A: 7.66

Q: What about the Acetal impurity (clear glass vials, 1 M) of the same molecule?
A: 0.04%

Q: And the Amine impurity (clear glass vials, 1 M)?
A: 0.04%

Q: And the Assay (clear glass vials, 1 M)?
A: 101.71

Q: What about the Description (clear glass vials, 1 M) of the same molecule?
A: clear

Q: And the Regiomer (clear glass vials, 1 M)?
A: 0.01%

Q: And the “Sum impurities >0.05” value (clear glass vials, 1 M)?
A: 0.00%

Q: What about the “Total (impurity)” value (clear glass vials, 1 M) of the same molecule?
A: 0.22%

Q: And the Triol impurity (clear glass vials, 1 M)?
A: 0.03%

Q: What about the pH (clear glass vials, 1 M) of the same molecule?
A: 7.65

Q: What about the Acetal impurity (clear glass vials, 2 M) of the same molecule?
A: 0.04%

Q: And the Amine impurity (clear glass vials, 2 M)?
A: 0.04%

Q: What about the Assay (clear glass vials, 2 M) of the same molecule?
A: 99.69

Q: What about the Description (clear glass vials, 2 M) of the same molecule?
A: clear

Q: And the Regiomer (clear glass vials, 2 M)?
A: 0.02%

Q: And the “Sum impurities >0.05” value (clear glass vials, 2 M)?
A: 0.05%

Q: What about the “Total (impurity)” value (clear glass vials, 2 M) of the same molecule?
A: 0.28%

Q: What about the Triol impurity (clear glass vials, 2 M) of the same molecule?
A: 0.05%

Q: And the pH (clear glass vials, 2 M)?
A: 7.63

Q: What about the Acetal impurity (clear glass vials, 3 M) of the same molecule?
A: 0.05%

Q: What about the Amine impurity (clear glass vials, 3 M) of the same molecule?
A: 0.06%

Q: And the Assay (clear glass vials, 3 M)?
A: 98.25

Q: And the Description (clear glass vials, 3 M)?
A: clear

Q: What about the Regiomer (clear glass vials, 3 M) of the same molecule?
A: 0.04%

Q: And the “Sum impurities >0.05” value (clear glass vials, 3 M)?
A: 0.16%

Q: And the “Total (impurity)” value (clear glass vials, 3 M)?
A: 0.33%

Q: And the Triol impurity (clear glass vials, 3 M)?
A: 0.05%

Q: What about the pH (clear glass vials, 3 M) of the same molecule?
A: 7.58

Q: What about the Acetal impurity (clear glass vials, T0) of the same molecule?
A: 0.05%

Q: And the Amine impurity (clear glass vials, T0)?
A: 0.04%

Q: What about the Assay (clear glass vials, T0) of the same molecule?
A: 98.34

Q: And the Description (clear glass vials, T0)?
A: clear

Q: And the Regiomer (clear glass vials, T0)?
A: 0.00%

Q: And the “Sum impurities >0.05” value (clear glass vials, T0)?
A: 0.22%

Q: What about the “Total (impurity)” value (clear glass vials, T0) of the same molecule?
A: 0.40%

Q: What about the Triol impurity (clear glass vials, T0) of the same molecule?
A: 0.05%

Q: What about the pH (clear glass vials, T0) of the same molecule?
A: 7.65
